One data set relates to African trypanosomes. As to the kind of experiment: In vitro activity against African trypanosomes (summary). In kind it is cell-based. As to conditions: Trypanosoma brucei, laboratory strains and recent clinical isolates. The procedure: Parasites were cultured with or without the test article at a concentration of 3×10^4/mL in Minimal Essential Medium, according to Baltz et al., with the following modifications: 0.2 mM 2-mercaptoethanol, 1 mM Na-pyruvate, 0.5 mM hypoxanthine and 15% heat inactivated horse serum at 37°C in 5% CO2 in 96-well microtitre plates for 72 h. 10 µL of Alamar Blue was added for the final 3 h to determine viability. The assay was assessed by reading the fluorescence in each well at an excitation wavelength of 536 nm and at an emission wavelength of 588 nm. The IC50 values were calculated from the sigmoidal inhibition curves. For cytotoxicity, 4×10^4/mL L-6 rat skeletal myoblast cells were used, and incubations and assessments carried out as above.

The next data set has as its system T. b. gambiense 130R. As to the kind of experiment: Acute infection mouse model. The data set is classed as in vivo. As to conditions: 100 mg/kg×4 days po. The procedure: (§1) Female NMRI mice were infected via intraperitoneal injection with bloodstream forms of T. b. rhodesiense STIB900 or T. b. gambiense 130R and treated with test drugs daily for 4 consecutive days, starting on day 3 or 7 after infection, respectively, or with bloodstream forms of T. b brucei GVR35 and treated daily from day 21 after infection for 5 days. Parasitemia was evaluated by tail blood examination and surviving, aparasitaemic mice at 60, 90, or 180 days, respectively, were considered cured.

The test system of data set [1] is T. b. rhodesiense STIB900. As to the kind of experiment: Acute infection mouse model. In kind it is in vivo. The procedure:
as §1

Data set [2] in a line: Hepatocyte intrinsic clearance and metabolite profile. In kind it is in vitro ADME, dog. As to conditions: male, beagle, dog, cryopreserved hepatocytes, 1 µM. The procedure: Fexinidazole was incubated with cryopreserved hepatocytes from male CD-1 mice, male Sprague Dawley rats, male beagle dogs, male cynomolgus monkeys, and from pooled white or African-American human donor samples (purchased commercially), at concentrations of 1 µM and 10 µM. […] The incubated samples were analyzed by LC-MS after extraction into acetonitrile.
A quality control analysis of fexinidazole was performed via 1H-NMR in DMSO and LC- […]
provided by the Swiss Tropical Institute (Basel, Switzerland).
Reagents and solvents were of analytical grade and obtained from Sigma-Aldrich (St. Louis, […]
Cryopreserved hepatocytes from the male CD1 mouse, lot CSI; male Sprague Dawley rat, lot LPL; male beagle dog, lot BWX; male cynomolgus monkey, lot EHH; and pooled human samples, lot MJI, were purchased from In Vitro Technologies Inc (Baltimore, Maryland, […]
5.4. In vitro Incubations
On the day of the experiment a 10 mM stock solution of fexinidazole in DMSO was prepared and, within 3 hours, aliquots of this freshly prepared solution, after suitable dilution, were added to the incubation matrix, to reach fexinidazole final concentrations of 1 and 10 µM. The final percentage of DMSO was 0.01% in the incubation samples for the […]
On the day of experiment, the cryopreserved hepatocytes were thawed following the detailed instructions provided by the supplier.
The number of viable cells was determined using a Trypan Blue exclusion method.
5.4.1. Intrinsic Clearance Study […]
µM with mouse, rat, dog, monkey and human hepatocytes (300000 cells/mL for the mouse and 1 million cells/mL for the other species) in a final incubation volume of 0.75 mL […]
Incubations were performed in duplicate in a 48-well plate under shaking. Sampling was performed using an automatic liquid handling system (Multiprobe II EX, Packard). At 0, 1, 5, 10, 15, 20, 30, 60 and 120 minutes, 50 µL aliquots of the incubates were taken, then 80 µL of ice-cold acetonitrile and 20 µL of 1 µM warfarin in acetonitrile (internal standard) were added, and samples centrifuged at 2000 rpm for 20 min. The supernatant was analyzed by LC-MS/MS. […]
the medium alone at t = 0 and 120 minutes.
For the determination of phase I and phase II activity of hepatocytes, 7-ethoxycoumarin (7-EC) 1 µM, and 7-hydroxycoumarin (7-HC) 30 µM were used as positive controls and incubated under the same conditions as fexinidazole. Aliquots of incubates were taken at 0, 10, 20, 30, 60 and 120 minutes and processed as fexinidazole samples.
5.4.2. Metabolite Profile Study
For metabolite profiling, fexinidazole was incubated at a concentration of 10 µM with mouse, rat, dog, monkey and human hepatocytes (300000 cells/mL for the mouse and 1 million cells/mL for the other species) in a final incubation volume of 2 mL Leibovitz L-15 […]
Aliquots of the incubation samples were taken at t = 0, 30 and 120 minutes; the metabolism was stopped by the addition of an equal volume of cold acetonitrile and the samples centrifuged at 1500 rpm for 20 min. The supernatant was stored at -20°C until analysis. Control incubations were performed with the compound in the medium alone […]
5.5. Analysis of Samples for Intrinsic Clearance Determination
The analysis of the samples for intrinsic clearance determination was performed by an LC-MS/MS method, using the following conditions:
HPLC Equipment and Conditions
HPLC system Agilent 1100 binary pump (Agilent, Palo Alto, USA)
Autosampler CTC Pal (Alfatech, San Jose, USA)
Analytical column Guard Column SB-C8 4.6 x 12.5 mm, 5 µm (Zorbax)
Column temperature ambient
Mobile phase A 10 mM ammonium formate pH 4.0: acetonitrile (95:5, v:v)
Mobile phase B 10 mM ammonium formate pH 4.0: acetonitrile (5:95, v:v) […]
Gradient conditions Step Total time (min) flow (µL/min) %A % B […]
MS Equipment and Conditions
Mass spectrometer API 4000 Triple Quadrupole (MDS-Sciex, Toronto, […]
Source Turbo Ion Spray (TIS)
Ion mode Positive for fexinidazole and 7-EC.
Negative for 7-HC, 7-HC sulphate and 7-HC glucuronide.

The next data set relates to rat liver cells. As to the kind of experiment: Ex vivo unscheduled DNA synthesis. In kind it is in vivo. The procedure: Groups of young male Sprague-Dawley rats received fexinidazole at doses of 500, 1000, or 2000 mg/kg orally, and the livers were sampled either 2–4 h or 12–14 h after administration. Hepatocyte suspensions were prepared and incubated in the presence of […] thymidine. Slides of fixed hepatocytes were coated in photographic emulsion and stored for 14 days at 4°C in the dark. The silver grains above the nuclei or cytoplasm (background) were counted, providing a measure of DNA uptake during DNA repair. The difference between these two counts indicated the extent of DNA repair (nuclear net grain count).

Details of data set [3]: method as in study 0339-2007. The following applies: 7-day repeated toxicity study, top dose 2000 mg/kg, ref study 0339-2007; cited from earlier work.

In brackets after ≈: the same amount, converted by molar mass.

The term IC50 denotes the concentration at which inhibition is half-maximal. In general, half-life refers to the time in which the quantity being followed falls by half.

With `CSc1ccc(OCc2ncc([N+](=O)[O-])n2C)cc1` [Fexinidazole, 1-methyl-2-((p-(methylthio)phenoxy)methyl)-5-nitroimidazole], in the data set on African trypanosomes, the IC50 is 0.1 to 0.8 µg/mL (≈ 0.358 to 2.86 µM). Also, the Cured/infected with T. b. gambiense 130R was 3/3; in data set [1] (25 mg/kg×4 days po), 0/4; in data set [1] (50 mg/kg×4 days po) it was 1/4; in data set [1] (100 mg/kg×4 days po), 4/4. Further, the Mean relapse time in the data set on T. b. gambiense 130R is recorded as over 90 days; in data set [1] (25 mg/kg×4 days po) it was 12 days; in data set [1] (50 mg/kg×4 days po) it was over 27 days; in data set [1] (100 mg/kg×4 days po), over 60 days. Moreover, the efficacy result in data set [1] (50 mg/kg twice a day for 4 days po, T. b. rhodesiense and T. b. gambiense acute models) is “effective in curing”; in data set [1] (single high dose, acute model, data not shown) it was “partially curative”. Further, in data set [2], the half-life at 1 µM was determined as 1.1 min. In addition, the CLint scaled at 1 µM in data set [2] (read-out: CLint in vitro) is over 3000 mL/min/kg. In addition, the hepatocyte CLint at 1 µM in data set [2] (read-out: CLint in vitro) was 656 µL/min/1e6 cells. In addition, the “Net nuclear grain count (2–4 h)” value in the data set with rat liver cells (500 mg/kg po) was 0.0; in the data set on rat liver cells (1000 mg/kg po), −0.1; in the data set with rat liver cells (2000 mg/kg po) it was −0.4. Moreover, the “Net nuclear grain count (12–14 h)” value with rat liver cells (500 mg/kg po) is 0.4; with rat liver cells (1000 mg/kg po), 0.5; in the data set with rat liver cells (2000 mg/kg po) it was 0.2. Moreover, the UDS study result with rat liver cells (rat, in vivo) is reported as “confirmed the lack of mammalian genotoxic activity”. Further, the tolerability result in data set [3] is “well tolerated”.

Values taken from paper PMC3006138, “Fexinidazole – A New Oral Nitroimidazole Drug Candidate Entering Clinical Development for the Treatment of Sleeping Sickness” (PLoS Neglected Tropical Diseases, 2010).
